Three compounds from ChEMBL document CHEMBL5137092, “Nostosin G and Spiroidesin B from the Cyanobacterium Dolichospermum sp. NIES-1697” (J Nat Prod, 2022) can be followed below.

Where only a bound is given, the exact number is not on record here.

The target of the test is Trypsin (Homo sapiens, UniProt P07477+P07478+P35030). Kind of test: Inhibition of trypsin (unknown origin) using Nalpha-benzoyl-D/L-arginine-4-nitroanilide hydrochloride as substrate preincubated for 5 mins followed by substrate addition and measured upto 30 mins by absorbance based assay. It is filed as protein assay.
As to `N=C(N)NCCC[C@@H](C=O)NC(=O)[C@H](CCc1ccc(O)cc1)NC(=O)[C@H](O)Cc1ccc(O)cc1`, the IC50 was 0.1 µM.
Then `N=C(N)NCCC[C@@H](CO)NC(=O)[C@H](CCc1ccc(O)cc1)NC(=O)[C@H](O)Cc1ccc(O)cc1`, with over 200 µM.
In turn, `CC(=O)N[C@@H](CC(C)C)C(=O)N[C@@H](CC(C)C)C(=O)N[C@H](C=O)CCCNC(=N)N` [LEUPEPTIN] gave an IC50 of 0.6 µM.

As a reminder, the IC50 is the concentration at which inhibition is half-maximal. High values mean a need for much substance, low ones inhibition by little substance.
